{
  "source": "patent US20240252520A1",
  "about": "(priority 2023, published 2024)",
  "key": {"db/db mouse model [1]": {"test_system": "db/db mouse model", "experiment": "Receptor agonists and antagonists on db/db mouse wounds, day 5 sacrifice", "conditions": "2 mg/kg topically daily with blk-gel; Chrm1, Chrm3 or α7nAChR agonist"}, "db/db mouse model [2]": {"test_system": "db/db mouse model", "experiment": "LD-Met gel in db/db mice, Day 5 and Day 10 wound analyses", "format": "in vivo", "conditions": "Day 5"}, "[3]": {"target": "T1, Acetylcholinesterase (AchE) (Mus musculus, UniProt P21836)", "T1 construct": "measuring the levels of the enzyme on Day 5 in mouse wounds lysates; from tissue; host or cells: skin wound tissue lysate of db/db mice, Day 5 after wounding", "T1 sequence (P21836 32-614)": "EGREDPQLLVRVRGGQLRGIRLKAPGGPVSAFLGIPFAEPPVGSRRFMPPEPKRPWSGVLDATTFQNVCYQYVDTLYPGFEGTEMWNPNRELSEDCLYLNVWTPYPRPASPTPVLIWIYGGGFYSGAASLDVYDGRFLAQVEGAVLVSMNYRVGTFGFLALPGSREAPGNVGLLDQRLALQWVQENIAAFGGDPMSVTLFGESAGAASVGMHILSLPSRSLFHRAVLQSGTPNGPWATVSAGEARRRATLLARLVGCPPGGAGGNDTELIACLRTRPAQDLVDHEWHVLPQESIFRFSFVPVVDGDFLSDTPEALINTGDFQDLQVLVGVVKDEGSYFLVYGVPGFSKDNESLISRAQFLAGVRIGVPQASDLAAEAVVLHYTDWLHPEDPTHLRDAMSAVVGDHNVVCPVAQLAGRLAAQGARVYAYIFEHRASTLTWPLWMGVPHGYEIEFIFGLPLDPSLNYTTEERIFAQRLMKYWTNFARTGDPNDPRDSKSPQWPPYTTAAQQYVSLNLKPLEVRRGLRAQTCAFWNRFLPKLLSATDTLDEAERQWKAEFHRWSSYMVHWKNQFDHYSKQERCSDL", "experiment": "AchE activity in Day 5 mouse wound lysates", "format": "in vivo", "conditions": "Day 5, 2 days after bandage removal"}, "[4]": {"test_system": "THP-1 monocyte derived macrophages", "experiment": "Nicotinic and muscarinic receptor gene expression, THP-1 monocyte derived macrophages", "conditions": "48 hours"}, "keratinocytes [5]": {"test_system": "keratinocytes", "experiment": "Nicotinic and muscarinic receptor gene expression, keratinocytes", "conditions": "48 hours"}, "[6]": {"test_system": "THP-1 derived macrophages", "experiment": "Cytokine gene expression in THP-1 derived macrophages polarized to M0, M1, M2", "format": "cell-based, human", "text": "(§1) This concentration was selected for all subsequent experiments (FIG. 24A)."}, "fibroblasts [7]": {"test_system": "fibroblasts", "experiment": "Alamar Blue assay of fibroblast metabolic activity", "format": "cell-based, human", "conditions": "over three days after treatment", "text": "as §1\nFollowing the in silico prioritization of metrifonate as a key compound in promoting wound healing, we determined if addition of metrifonate influenced key cell functions in tissue cultures of cells that are implicated in wound healing, such as fibroblasts, keratinocytes and macrophages.\nIn a further example, an alamarBlue™ Assay can be used as follows: Human dermal fibroblasts (immortalized cell line, abm Cat. No. T0904) are cultured in complete medium (PriGrow III with 10% Fetal Bovine Serum, 100U/L penicillin, and 100 ug/L streptomycin) at 37° C. in 5% CO2. The cells are passaged every 7 days using 0.025% trypsin-ethylenediaminetetraacetic acid (Life Technologies) and plated at 10,000 cells per well in 96-well plates. […] Cell viability is determined by alarmarBlue™ (Invitrogen) after 48h, and 72h of incubation. Briefly, after 48 or 72h of incubation the media containing inhibitors is removed and replaced with 10% v/v alamarBlue™ in complete media and the plate is incubated at 37° C. for further 24 h. After this incubation period, plates are read at an excitation range of 540-570 nm and an emission range of 580-610 nm. All AchE inhibitors are expected to not negatively affect cell proliferation up to the concentration of 10 μg/ml."}, "[8]": {"conditions": "oral 30-60 mg daily up to 26 weeks; cited from earlier work"}, "acute porcine wounds": {"test_system": "acute porcine wounds", "experiment": "Metrifonate eluting dressings on acute porcine wounds over 20 days"}, "fibroblasts [9]": {"test_system": "fibroblasts", "experiment": "Nicotinic and muscarinic receptor gene expression, fibroblasts", "conditions": "48 hours"}, "diabetic humanized mice": {"test_system": "diabetic humanized mice", "experiment": "Metrifonate hydrogel on diabetic humanized mice wounds", "format": "in vivo, mouse", "text": "These genes are well known to improve impaired diabetic wound healing, see Berry-Kilgour et al., Advancements in the Delivery of Growth Factors and Cytokines for the Treatment of Cutaneous Wound Indications; Adv Wound Care (New Rochelle) 2021; 10(11):596-622. Epub 20201125. doi:10/1089?wound.2020.1183. PubMed PMID:33086946: PMCID: PMC8392095.\nTo generate a humanized skin graft mice model, Foxn1nu nude male mice of 6 weeks old can be used as the recipient animals. These mice are devoid of T cells and suffer from a lack of cell-mediated immunity making them a model of choice for xenograft studies. […] Following the sustained diabetic state period, wounds are inflicted on the transplanted human skin with a 3 mm punch biopsy, treatment options include the best two Metrifonate-Hydrogel dressings, previously determined by the mice and pig studies for the preferred two doses. […] Wound healing can be monitored using standardized photography daily during the course of 3, 5 and 10 days. […]\nTo generate a humanized skin graft mice model, Foxn1nu nude male mice of 6 weeks old can be used as the recipient animals. […] Following the sustained diabetic state period, wounds are inflicted on the transplanted human skin with a 3 mm punch biopsy, treatment options include the best two Metrifonate-Hydrogel dressings, previously determined by the mice and pig studies for the preferred two doses. […]"}, "keratinocytes [10]": {"test_system": "keratinocytes", "experiment": "Wound healing scratch assay of keratinocytes with metrifonate", "format": "cell-based", "conditions": "10 μg/ml, after 24 hours", "method": "as §1\nKeratinocyte HaCaT cells (ATCC) are cultured in complete medium (Dulbecco's Modified Eagle Medium with 10% Fetal Bovine Serum, 100U/L penicillin, and 100 ug/L streptomycin) at 37° C. in 5% CO2. The cells are passaged every 5 days using 0.025% trypsin-ethylenediaminetetraacetic acid (Life Technologies) detachment and plated at 100,000 cells per well in 24-well plates. The cell monolayer is scratched in a straight line using a P200 pipette tip. […] Images are taken immediately after the scratch (0 h), in 6 h, 12 h, 24 h, 48 h, and 72 h for at least four wells per condition. Scratch areas are analyzed using ImageJ/FIJI. At least three independent experiments are performed. All AchE inhibitors are expected to promote faster wound coverage up to the concentration of 10 μg/ml."}, "diabetic db/db mice": {"test_system": "diabetic db/db mice", "experiment": "LNP-FGF2, LNP-IL-2, LNP-CHI3L1, LNP-IL-17A mRNA bandages in db/db mice (Example 15)", "format": "in vivo, mouse", "protocol": "Two 6-mm punch biopsy full-thickness wounds were created on the dorsum of 16-week-old diabetic db/db mice (FIG. 19A). Macroporous bandages loaded with 4 μg of LNP-FGF2, LNP-IL-2, LNP-CHI3L1, and LNP-IL-17A mRNA were topically applied on the wounds for 10 days. […] The wound size was measured every three days."}},
  "note": "Entries after “also recorded” stand apart in the source; their conditions may differ.",
  "data": [
    {"molecule": "LASSBIo0897", "values": [
      {"measurement": "effect of agonist on wound healing", "setting": "db/db mouse model [1]", "result": "only the M1 agonist accelerated wound healing"}
    ]},
    {"molecule": "COP(=O)(OC)C(O)C(Cl)(Cl)Cl", "note": "(stereo not shown) [metrifonate, (2,2,2-trichloro-1-hydroxyethyl) dimethylphosphonate]", "values": [
      {"measurement": "total and degranulated mast cells (toluidine blue staining)", "setting": "db/db mouse model [2]", "result": "enrichment of both total and degranulated mast cells"},
      {"measurement": "Acetylcholinesterase (AchE) activity in wounds", "setting": "[3]", "result": "inhibits the activity of Acetylcholinesterase (AchE)"},
      {"measurement": "receptor gene expression", "setting": "[4]; M0 cells", "result": "activation of CHRM3 receptor; also recorded: up-regulation of CHRM3 receptor"},
      {"measurement": "receptor gene expression", "setting": "[4]; M1 cells", "result": "activation of CHRM4; also recorded: higher expression of CHRM4 and CHRNA3 receptors"},
      {"measurement": "receptor gene expression", "setting": "keratinocytes [5]", "result": "up-regulation of CHRM3 and CHRNB4 receptors"},
      {"measurement": "increase in IL10 gene expression", "setting": "[6]; M0 macrophages", "result": 30, "unit": "fold"},
      {"measurement": "downregulation of IL1b", "setting": "[6]; M1 cells", "result": 12, "unit": "fold"},
      {"measurement": "downregulation of TNF", "setting": "[6]; M1 cells", "result": 40, "unit": "fold"},
      {"measurement": "increase in IL10 gene expression", "setting": "[6]; M2 macrophages", "result": 10, "unit": "fold"},
      {"measurement": "metrifonate concentration that began to negatively affect viability", "setting": "fibroblasts [7]", "result": "over 10 μg/ml"},
      {"measurement": "clinical effect in mild-to-moderate Alzheimer's disease", "setting": "[8]", "result": "beneficial effect"},
      {"measurement": "adverse effects", "setting": "acute porcine wounds", "result": "did not induce any adverse effects"},
      {"measurement": "wound lengths in histological assessment", "setting": "acute porcine wounds", "result": "shorter wound lengths"},
      {"measurement": "receptor gene expression", "setting": "fibroblasts [9]", "result": "activation of CHRNA4; also recorded: increased expression of CHRNA4"},
      {"measurement": "wound healing", "setting": "diabetic humanized mice; low dose hydrogel vs blank hydrogel, D0 to D7", "result": "improved wound healing"},
      {"measurement": "expression of Il10, Arg and human gene VEGFA (RT-qPCR)", "setting": "diabetic humanized mice; upon sacrifice", "result": "increased the expression"},
      {"measurement": "keratinocyte migration / scratch wound closure", "setting": "keratinocytes [10]", "result": "significantly accelerate migration"}
    ]},
    {"molecule": "C[N+](C)(C)CC#CCOC(=O)Nc1cccc(Cl)c1.[Cl-]", "note": "[McN-A 343]", "values": [
      {"measurement": "effect of agonist on wound healing", "setting": "db/db mouse model [1]", "result": "promoted the wound healing; also recorded: accelerated wound healing"}
    ]},
    {"molecule": "O=C(N[C@H]1CN2CCC1CC2)c1ccc(Cl)cc1", "note": "[PNU-282987]", "values": [
      {"measurement": "effect of agonist on wound healing", "setting": "db/db mouse model [1]", "result": "only the M1 agonist accelerated wound healing"}
    ]},
    {"molecule": "CHI3L1 protein: bandages loaded with CHI3L1 protein employed as additional control", "values": [
      {"measurement": "wound healing during the whole period vs blank bandage (repeated measurement analysis)", "setting": "diabetic db/db mice; 4 μg bandage, D0 to D10", "result": "no differences in wound healing"},
      {"measurement": "wound reduction on Day 10", "setting": "diabetic db/db mice; Day 10, compared with blank", "result": "similar"}
    ]}
  ]
}
